Experimental data: paper PMC9505659, “Mixture Effects of Tryptophan Intestinal Microbial Metabolites on Aryl Hydrocarbon Receptor Activity” (International Journal of Molecular Sciences, 2022)
Read-outs that look alike come from different tables or passages of the source.

Tests used:
[1] = target: glucocorticoid receptor (GR) (Homo sapiens, UniProt P04150); experiment: cell-based
Description: (§1) The human colon adenocarcinoma cell line LS174T was purchased from the American Type Culture Collection (ATCC). The following stably transfected reporter gene cell lines were used to estimate specific receptor activation: AZ-AHR (derived from the human hepatocellular carcinoma cell line HepG2), LS174T-AHR-luc (harboring the reporter plasmid pGL-4.27-DRE and prepared by the same protocol as AZ-AHR, AZ-GR (derived from the human cervix carcinoma cell line HeLa)), and IZ-VDRE (derived from the human colon adenocarcinoma cell line LS180). Cells were cultured in Dulbecco’s modified Eagle’s medium supplemented with 10% fetal bovine serum, 4 mM L-glutamine, 1% nonessential amino acids and antibiotics, and 100 U/mL Penicillin-Streptomycin. AIZ-AR (derived from the human prostate carcinoma cell line 22RV1) was cultivated in RPMI-1640 medium supplemented with 10% charcoal-stripped fetal bovine serum, 4 mM L-glutamine, and antibiotics 100 U/mL Penicillin-Streptomycin. PAZ-PPARg (derived from the human bladder carcinoma cell line T24/83) was cultivated in Dulbecco’s modified Eagle’s medium supplemented with 10% charcoal-stripped fetal bovine serum, 4 mM L-glutamine and antibiotics, and 100 U/mL Penicillin-Streptomycin. Cells were maintained in 75 cm^2 plastic tissue culture flasks and subcultured twice a week.

[2] = target: T1, AHR (Homo sapiens, UniProt P35869); experiment: High-throughput AHR reporter gene assay in AZ-AHR cells;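 further: luciferase activity measured in lysed AZ-AHR reporter cells after 4 h compound exposure, with 0.1% DMSO as vehicle control and 5 nM TCDD as reference agonist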
T1 sequence (P35869 11-848): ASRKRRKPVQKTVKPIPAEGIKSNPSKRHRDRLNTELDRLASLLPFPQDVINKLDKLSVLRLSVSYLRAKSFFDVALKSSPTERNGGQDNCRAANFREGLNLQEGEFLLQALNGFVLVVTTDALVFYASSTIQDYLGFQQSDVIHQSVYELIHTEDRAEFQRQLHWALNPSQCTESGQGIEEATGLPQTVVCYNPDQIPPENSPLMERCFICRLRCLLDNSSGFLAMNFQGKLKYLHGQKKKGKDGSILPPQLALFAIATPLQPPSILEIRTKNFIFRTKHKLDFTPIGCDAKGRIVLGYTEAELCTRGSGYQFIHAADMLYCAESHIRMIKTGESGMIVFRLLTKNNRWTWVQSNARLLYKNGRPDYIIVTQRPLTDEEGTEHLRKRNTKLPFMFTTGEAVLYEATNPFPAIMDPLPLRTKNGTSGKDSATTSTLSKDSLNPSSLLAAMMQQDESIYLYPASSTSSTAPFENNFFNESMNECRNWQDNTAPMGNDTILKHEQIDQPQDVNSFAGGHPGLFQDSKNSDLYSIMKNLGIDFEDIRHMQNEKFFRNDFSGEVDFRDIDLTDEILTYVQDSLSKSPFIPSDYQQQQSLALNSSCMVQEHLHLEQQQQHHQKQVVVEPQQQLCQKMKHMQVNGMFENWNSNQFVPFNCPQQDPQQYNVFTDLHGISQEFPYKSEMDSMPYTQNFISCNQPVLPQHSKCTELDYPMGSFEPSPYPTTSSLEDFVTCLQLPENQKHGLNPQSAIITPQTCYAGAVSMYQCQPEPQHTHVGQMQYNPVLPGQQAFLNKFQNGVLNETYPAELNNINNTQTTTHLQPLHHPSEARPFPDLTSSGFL
Experimental: (§2) After 24 h of incubation, the cells were treated with the reference (5 nM TCDD) and tested compounds using a contact-free acoustic liquid handler ECHO 550 (Labcyte, San Jose, CA, USA). […] The cells were incubated with the tested compounds for 4 h. Thereafter, the cells were washed with PBS by Washer EL406 (BioTek, Winooski, VT, USA) and lysed by 1x gene reporter lysis buffer (E3971, Promega). After adding the substrate (D-Luciferin, L9504, Sigma) with a dispenser Multidrop Combi (ThermoFisher Scientific), the luciferase activity was measured on a multimode plate reader EnVision (PerkinElmer). The experiments were performed in technical duplicates and three biological replicates at least.

[3] = system: AHR; parameters: method as in PMID 32283770; conditions: reporter hepatic cell line, 24 h of incubation; cited from earlier work
[4] = system: androgen receptor (AR); conditions: DHT 100 nM, 24 h
Experimental: The human colon adenocarcinoma cell line LS174T was purchased from the American Type Culture Collection (ATCC). […] Cells were cultured in Dulbecco’s modified Eagle’s medium supplemented with 10% fetal bovine serum, 4 mM L-glutamine, 1% nonessential amino acids and antibiotics, and 100 U/mL Penicillin-Streptomycin. […] PAZ-PPARg (derived from the human bladder carcinoma cell line T24/83) was cultivated in Dulbecco’s modified Eagle’s medium supplemented with 10% charcoal-stripped fetal bovine serum, 4 mM L-glutamine and antibiotics, and 100 U/mL Penicillin-Streptomycin. Cells were maintained in 75 cm^2 plastic tissue culture flasks and subcultured twice a week.

[5] = target: T1, AHR
Experimental: as §2

[6] = target: T2, peroxisome proliferator-activated receptor gamma (PPARγ) (Homo sapiens, UniProt P37231); experiment: Nuclear receptor counter-screen, luciferase reporter assay PAZ-PPARg cells; type: cell-based; conditions: 15d-PGDJ 40 µM, 24 h
T2 construct: PAZ-PPARg (derived from the human bladder carcinoma cell line T24/83); endogenous in cells; host or cells: PAZ-PPARg (T24/83 stably transfected reporter line)
T2 sequence (P37231 1-505): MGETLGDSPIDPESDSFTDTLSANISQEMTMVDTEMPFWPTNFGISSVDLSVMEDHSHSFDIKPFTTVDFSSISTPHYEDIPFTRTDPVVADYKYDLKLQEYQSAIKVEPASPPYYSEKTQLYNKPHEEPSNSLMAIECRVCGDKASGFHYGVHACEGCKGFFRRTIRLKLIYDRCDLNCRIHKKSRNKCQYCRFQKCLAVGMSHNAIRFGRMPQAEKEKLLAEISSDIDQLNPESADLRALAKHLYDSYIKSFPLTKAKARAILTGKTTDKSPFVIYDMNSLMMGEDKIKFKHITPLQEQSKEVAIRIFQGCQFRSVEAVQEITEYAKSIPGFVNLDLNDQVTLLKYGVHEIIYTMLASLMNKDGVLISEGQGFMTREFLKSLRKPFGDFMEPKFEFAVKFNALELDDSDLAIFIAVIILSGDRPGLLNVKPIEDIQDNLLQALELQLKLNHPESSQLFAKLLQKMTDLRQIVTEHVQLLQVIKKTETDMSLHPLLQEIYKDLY
Experimental: (§3) The following stably transfected reporter gene cell lines were used to estimate specific receptor activation: AZ-AHR (derived from the human hepatocellular carcinoma cell line HepG2) [41], LS174T-AHR-luc (harboring the reporter plasmid pGL-4.27-DRE and prepared by the same protocol as AZ-AHR, AZ-GR (derived from the human cervix carcinoma cell line HeLa)) [42], and IZ-VDRE (derived from the human colon adenocarcinoma cell line LS180) [43]. Cells were cultured in Dulbecco’s modified Eagle’s medium supplemented with 10% fetal bovine serum, 4 mM L-glutamine, 1% nonessential amino acids and antibiotics, and 100 U/mL Penicillin-Streptomycin. […]
(§4) The reporter cells were seeded into 96-well plates at a density of 2.5 × 10^4 (AZ-AHR, LS174T-AHR-luc, IZ-VDRE), 5 × 10^4 (AIZ-AR), 2.2 × 10^4 (AZ-GR), or 4 × 10^4 (PAZ-PPARg) cells in 0.2 mL of culture medium. […] After treatment, cells were lysed in a lysis buffer and the luciferase activity was measured in a 96-well plate format using the Nano-Glo Luciferase AssaySystem for the PAZ-PPARg and IZ-VDRE cell lines and the Luciferase AssaySystem for the AZ-AHR, LS174T-AHR-luc, AIZ-AR, and AZ-GR cell lines on a Tecan Infinite M200 Pro Plate Reader (Tecan, Männedorf, Switzerland).

[7] = target: T3, vitamin D receptor (VDR) (Homo sapiens, UniProt P11473); experiment: Nuclear receptor counter-screen, luciferase reporter assay IZ-VDRE cells; type: cell-based; conditions: VD3 75 nM, 24 h
T3 construct: IZ-VDRE (derived from the human colon adenocarcinoma cell line LS180); endogenous in cells; host or cells: IZ-VDRE (LS180 stably transfected reporter line)
T3 sequence (P11473 1-427): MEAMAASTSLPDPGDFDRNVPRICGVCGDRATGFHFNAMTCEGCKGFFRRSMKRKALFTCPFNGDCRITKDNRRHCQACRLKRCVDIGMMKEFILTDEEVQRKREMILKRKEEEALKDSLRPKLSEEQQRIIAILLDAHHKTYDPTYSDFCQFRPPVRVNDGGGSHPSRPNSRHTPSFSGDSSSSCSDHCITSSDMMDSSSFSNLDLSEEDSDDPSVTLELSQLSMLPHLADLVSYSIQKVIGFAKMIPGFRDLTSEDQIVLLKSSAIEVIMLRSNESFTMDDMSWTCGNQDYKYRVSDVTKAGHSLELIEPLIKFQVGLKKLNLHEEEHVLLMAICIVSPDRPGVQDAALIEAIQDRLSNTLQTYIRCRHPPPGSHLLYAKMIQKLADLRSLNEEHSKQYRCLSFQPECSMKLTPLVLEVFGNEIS
Experimental: as §3, §4

[8] = system: AZ-AHR cells; experiment: Cell viability assays (MTT, neutral red, LDH) in AZ-AHR cells; type: cell-based, human; conditions: 24 h, 2.5 and 5 mM
Experimental: The highest concentrations of the tested compounds were adjusted based on their solubility. […] The MTT (3-(4,5,-dimethylthiazol-2-yl)-2,5-diphenyltetrazolium bromide) colorimetric assay was performed as previously described. The neutral red assay and LDH (Abcam, Cambridge, UK) assays were performed according to the manufacturer’s protocol. Assays were measured spectrophotometrically using a Tecan Infinite M200 plate reader (Tecan, Männedorf, Switzerland).

[9] = target: T1, AHR; parameters: AZ-AHR (derived from the human hepatocellular carcinoma cell line HepG2); endogenous in cells; host or cells: AZ-AHR (HepG2 stably transfected with a reporter); method as in PMID 26235394; conditions: 4 h of incubation, human hepatic HepG2 (40/6) reporter cells; cited from earlier work
[10] = target: T1, AHR; experiment: AHR luciferase reporter assay in LS174T-AHR-luc cells; type: cell-based; parameters: endogenous in cells; conditions: IND 274 µM (highest applied concentration), 4 h, TCDD 20 nM
Description: as §1

[11] = AZ-AHR cells, 4 h, luciferase activity by MICT in highest concentration / by 5 nM TCDD

Chain of glucocorticoid receptor (GR) (P04150 whole entry): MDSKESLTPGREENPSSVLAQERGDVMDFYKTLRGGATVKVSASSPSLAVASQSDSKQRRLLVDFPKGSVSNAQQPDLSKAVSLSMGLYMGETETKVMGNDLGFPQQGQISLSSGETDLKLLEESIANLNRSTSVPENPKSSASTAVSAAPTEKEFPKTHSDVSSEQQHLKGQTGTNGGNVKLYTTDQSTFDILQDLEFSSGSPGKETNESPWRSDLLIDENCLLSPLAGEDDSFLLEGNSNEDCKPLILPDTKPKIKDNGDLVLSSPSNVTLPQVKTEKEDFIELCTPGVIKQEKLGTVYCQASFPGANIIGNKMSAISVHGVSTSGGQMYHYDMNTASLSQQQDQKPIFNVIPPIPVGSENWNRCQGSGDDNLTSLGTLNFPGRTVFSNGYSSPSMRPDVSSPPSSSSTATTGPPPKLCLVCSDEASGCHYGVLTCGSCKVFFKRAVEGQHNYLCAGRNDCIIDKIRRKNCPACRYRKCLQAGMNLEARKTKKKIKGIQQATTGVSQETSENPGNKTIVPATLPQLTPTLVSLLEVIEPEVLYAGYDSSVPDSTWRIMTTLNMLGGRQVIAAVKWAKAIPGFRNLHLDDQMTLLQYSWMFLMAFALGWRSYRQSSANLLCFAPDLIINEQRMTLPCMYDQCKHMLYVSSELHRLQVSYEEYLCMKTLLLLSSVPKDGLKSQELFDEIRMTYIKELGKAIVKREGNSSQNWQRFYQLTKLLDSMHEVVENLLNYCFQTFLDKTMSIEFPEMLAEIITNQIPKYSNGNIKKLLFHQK

| SMILES | EC50 [2] [µM] | efficacy class of AHR agonist based on magnitude of luciferase induction ([2]; AZ-AHR cells, 4 h) | AHR agonist efficacy class [3] | further results |
| --- | --- | --- | --- | --- |
| C[C@@H]1C[C@H]2[C@@H]3CCC4=CC(=O)C=C[C@]4(C)[C@@]3(F)[C@@H](O)C[C@]2(C)[C@@]1(O)C(=O)CO [DEX, dexamethasone] | – | – | – | fold induction at 0.1 µM [1]: 22 |
| Cc1c[nH]c2ccccc12 [3MI, 3-methylindole] | 8.4 | medium | medium efficacy | – |
| C[C@]12CCC(=O)C[C@@H]1CC[C@@H]1[C@@H]2CC[C@]2(C)[C@@H](O)CC[C@@H]12 [DHT, 5α-dihydrotestosterone] | – | – | – | fold induction [4]: 20 fold |
| O=C(O)C(=O)Cc1c[nH]c2ccccc12 [IPY, indole-3-pyruvate] | – | high | high-efficacy | relative efficacy, % of maximal induction to TCDD [2, 11]: 77%; EC50 [5]: 24.4 ± 12 µM |
| O=C(O)C(O)Cc1c[nH]c2ccccc12 (centres unmarked) [ILA, indole-3-lactate] | – | – | no or low efficacy | – |
| Clc1cc2c(cc1Cl)Oc1cc(Cl)c(Cl)cc1O2 [TCDD, 2,3,7,8-tetrachlorodibenzo-p-dioxin, reference compound] | – | – | – | fold induction at 0.005 µM ([2]; read-out: fold induction of luciferase activity, AZ-AHR cells, 4 h, TCDD 5 nM, over control cells): ~200 |
| CCCCC/C=C/C=C1/C(=O)C=C[C@@H]1C/C=C\CCCC(=O)O [15d-PGDJ, 15-Deoxy-δ12,14-Prostaglandin J2] | – | – | – | fold induction [6]: 3 fold |
| C=C1CC[C@H](O)C/C1=C/C=C1\CCC[C@]2(C)[C@@H]([C@H](C)CCCC(C)C)CC[C@@H]12 [VD3, cholecalciferol] | – | – | – | fold induction at 0.075 µM [7]: 65 |
| O=C(O)Cc1c[nH]c2ccccc12 [IAA, indole-3-acetate] | – | – | no or low efficacy | – |
| OCCc1c[nH]c2ccccc12 [IET, indole-3-ethanol] | 29.3 ± 8.2 | medium | medium efficacy | – |
| O=Cc1c[nH]c2ccccc12 [IA, Indole-3-aldehyde] | 18.9 ± 3.9 | low | no or low efficacy | relative efficacy, % of maximal induction to TCDD [2, 11]: ≈ 25% |
| NCCc1c[nH]c2ccccc12 [TA, tryptamine] | 13.8 | – | medium efficacy | efficacy class of AHR agonist based on magnitude of luciferase induction [2]: medium |
| O=C(O)CCc1c[nH]c2ccccc12 [IPA, indole-3-propionate] | – | – | no or low efficacy | efficacy class of AHR agonist based on magnitude of luciferase induction [2]: low; relative efficacy, % of maximal induction to TCDD [2]: ≈ 25%; EC50 [5]: 48.1 ± 15.2 µM |
| O=C(O)/C=C/c1c[nH]c2ccccc12 [IAC, indole-3-acrylate] | – | high | medium efficacy | relative efficacy, % of maximal induction to TCDD [2, 11]: 68%; EC50 [5]: 8.4 µM |
| NC(=O)Cc1c[nH]c2ccccc12 [IAD, indole-3-acetamide] | 4.5 | high | high-efficacy | relative efficacy, % of maximal induction to TCDD [2, 11]: 84% |
| c1ccc2[nH]ccc2c1 [IND, Indole] | 37.6 ± 14.4 | – | high-efficacy | toxicity at very high concentrations [8]: toxic; efficacy class of AHR agonist based on magnitude of luciferase induction [2]: high; indole concentrations under which AHR was saturated [2]: > 20 µM; EC50 [9]: ~3 µM; EC50 [3]: ~1500 µM; AHR activation compared with TCDD [10]: stronger than TCDD |
